Data published in patent US20220296557A1, “COMBINATIONS OF BCL-2/BCL-XL INHIBITORS AND RELATED USES” (Ascentage Pharma (Suzhou) Co., Ltd., priority 2020, published 2022).

Key:
Format in all cases: cell-based
BON-1 = assay: Cell viability/CTG assay, BON-1; conditions: BON-1 cell line; CTG assay, 72 hr; values approximate; read-out: IC (μM, CTG assay: 72 hr)
Description: (§1) FIGS. 3A and 3B are a set of graphs showing the cell viability/CTG assays for NEN cell lines treated with BCL-2/xL inhibitor Compound No. 2 (an active metabolite of Compound No. 1)(FIG. 3A) or ABT-263 (FIG. 3B).
(§2) The activity of Compound No. 2 (an active metabolite of Compound No. 1) in overcoming apoptotic blockade in neuroendocrine neoplasm was tested, alone or in comparison with ABT-263.

QGP-1 = assay: Cell viability/CTG assay, QGP-1; conditions: QGP-1 cell line; CTG assay, 72 hr; values approximate; read-out: IC (μM, CTG assay: 72 hr)
Description: as §1, §2

NCI-H727 = assay: Cell viability/CTG assay, NCI-H727; conditions: Homo sapiens; NCI-H727 cell line; CTG assay, 72 hr; values approximate; read-out: IC (μM, CTG assay: 72 hr)
Description: as §1, §2

NCI-H460 = assay: Cell viability/CTG assay, NCI-H460; conditions: Homo sapiens; NCI-H460 cell line; CTG assay, 72 hr; values approximate; read-out: IC (μM, CTG assay: 72 hr)
Description: as §1, §2

β-TC3 = assay: Cell viability/CTG assay, β-TC3; conditions: β-TC3 cell line; CTG assay, 72 hr; values approximate; read-out: IC (μM, CTG assay: 72 hr)
Description: as §1, §2

MIN-6 = assay: Cell viability/CTG assay, MIN-6; conditions: Mus musculus, MIN6; MIN-6 cell line; CTG assay, 72 hr; values approximate; read-out: IC (μM, CTG assay: 72 hr)
Description: as §1, §2

NEN cell lines = assay: NEN cell viability (general statement); conditions: FIGS. 3A and 3B
Description: as §1, §2

BCL-xL:BIM complex = molecular target: T1, BCL-xL:BIM complex (Homo sapiens, UniProt Q07817); assay: BCL-2 family member complex intensity: BCL-xL:BIM; conditions: BON-1 and QGP-1 treated with BCL-2/xL inhibitors; FIG. 4A
T1 construct: High expression of BCL-xL protein was found in NEN cell lines; endogenous in cells; host or cells: BON-1 and QGP-1 (printed QGP-I) NEN cell lines
Excerpt: (§3) FIGS. 4A-4C are a set of graphs showing the BCL-2 family member complex intensity in BON-1 and QGP-I treated with BCL-2/xL inhibitors (FIG. 4A: BCL-xL:BIM complex, FIG. 4B: BCL-xL:PUMA complex; and FIG. 4C: BAX:BAK protein complexes).

BAX:BAK complex = assay: BCL-2 family member complex intensity: BAX:BAK; conditions: BON-1 and QGP-1 treated with BCL-2/xL inhibitors; FIG. 4C
Excerpt: as §3

T1 sequence (Q07817 whole entry, one chain of several): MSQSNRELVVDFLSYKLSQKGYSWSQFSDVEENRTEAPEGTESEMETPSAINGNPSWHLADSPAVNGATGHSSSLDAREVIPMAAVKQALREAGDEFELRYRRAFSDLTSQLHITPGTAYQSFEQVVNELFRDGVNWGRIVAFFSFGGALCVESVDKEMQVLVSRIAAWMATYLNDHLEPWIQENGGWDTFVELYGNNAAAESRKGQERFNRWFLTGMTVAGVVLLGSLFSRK

Row | Structure (SMILES) | IC50 (BON-1) [µM] | IC50 (QGP-1) [µM] | IC50 (NCI-H727) [µM] | IC50 (NCI-H460) [µM] | IC50 (β-TC3) [µM] | IC50 (MIN-6) [µM] | NEN cell viability (NEN cell lines) | BCL-xL:BIM complex (BCL-xL:BIM complex) | BAX:BAK complex (BAX:BAK complex)
1 | CC1(C)CCC(c2ccc(Cl)cc2)=C(CN2CCN(c3ccc(C(=O)NS(=O)(=O)c4ccc(N[C@H](CCN5CCOCC5)CSc5ccccc5)c(S(=O)(=O)C(F)(F)F)c4)cc3)CC2)C1 [ABT-263, 4-(4-{[2-(4-Chlorophenyl)-5,5-dimethyl-1-cyclohexen-1-yl]methyl}-1-piperazinyl)-N-[(4-{[(R)-4-(4-morpholinyl)-1-(phenylsulfanyl)-2-butanyl]amino}-3-[(trifluoromethyl)sulfonyl]phenyl)-sulfonyl]benzamide, reference compound] | 0.91 | ≥ 10 | 3.74 | 71 | 1.12 | 5.56 | – | – | –
2 | Cc1c(S(C)(=O)=O)c(-c2cc(F)cc(N3CCN(c4ccc(NS(=O)(=O)c5ccc(N[C@H](CCN6CCC(C(=O)O)CC6)CSc6ccccc6)c(S(=O)(=O)C(F)(F)F)c5)cc4)CC3)c2)c(-c2ccc(Cl)cc2)n1C(C)C [Compound No. 2] | 0.43 | 3.78 | 3.79 | ≥ 10 | 0.55 | 2.07 | inhibits the NEN cell viability | decreases BCL-xL:BIM complex | increases BAX:BAK complex
